Patent publication US9850225B2, “Compounds useful as immunomodulators” (BRISTOL-MYERS SQUIBB COMPANY, priority 2014, dated 2017)

biological target: PD-1/PD-L1 interaction (PD-1-Ig / PD-L1-His) (Homo sapiens (Human), UniProt Q9NZQ7); assay: PD-1/PD-L1 Homogenous Time-Resolved Fluorescence (HTRF) binding assay; conditions: PD-1/PD-L1 HTRF binding assay; value given as range class; read-out: Range or IC50
In short: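 Human PD-L1-His (10 nM final) was pre-incubated with inhibitor for 15 min, then PD-1-Ig (20 nM final) was added for a further 15 min in dPBS with 0.1% BSA and 0.05% Tween-20. Binding was detected by HTRF using Eu-cryptate anti-Ig (1 nM) and APC anti-His (20 nM).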

Sequence of PD-1/PD-L1 interaction (PD-1-Ig / PD-L1-His) (Q9NZQ7 other isoform, or with tags, fused parts or gaps): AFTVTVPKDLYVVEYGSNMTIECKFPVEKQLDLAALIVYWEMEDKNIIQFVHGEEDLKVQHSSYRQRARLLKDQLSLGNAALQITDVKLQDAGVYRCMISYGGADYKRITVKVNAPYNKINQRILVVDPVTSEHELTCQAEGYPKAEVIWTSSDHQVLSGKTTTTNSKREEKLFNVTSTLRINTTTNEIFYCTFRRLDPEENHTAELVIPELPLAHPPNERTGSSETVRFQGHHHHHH

Row | IC50 | SMILES
1 | 0.6 to 10 nM | Cc1c(COc2cc(OCc3cccc(C#N)c3)c(CN[C@@H](CCCCN(C)C)C(=O)O)cc2Cl)cccc1-c1ccc2c(c1)OCCO2 [Example 1173, (S)-2-((5-chloro-2-((3-cyanobenzyl)oxy)-4-((3-(2,3-dihydrobenzo[b][1,4]dioxin-6-yl)-2-methylbenzyl)oxy)benzyl)amino)-6-(dimethylamino)hexanoic acid]
2 | 0.6 to 10 nM | Cc1c(COc2cc(OCc3cccc(C#N)c3)c(CN[C@@H](CC[S+](C)[O-])C(=O)O)cc2Cl)cccc1-c1ccc2c(c1)OCCO2 (stereo partly drawn) [Example 1174, (2S)-2-((5-chloro-2-((3-cyanobenzyl)oxy)-4-((3-(2,3-dihydrobenzo[b][1,4]dioxin-6-yl)-2-methylbenzyl)oxy)benzyl)amino)-4-(methylsulfinyl)butanoic acid]
3 | 10 to 100 nM | Cc1c(COc2cc(OCc3cccc(C#N)c3)c(CN[C@H](CC(=O)O)C(=O)O)cc2Cl)cccc1-c1ccc2c(c1)OCCO2 [Example 1175, (R)-2-((5-chloro-2-((3-cyanobenzyl)oxy)-4-((3-(2,3-dihydrobenzo[b][1,4]dioxin-6-yl)-2-methylbenzyl)oxy)benzyl)amino)succinic acid]
4 | 0.6 to 10 nM | Cc1c(COc2cc(OCc3cccc(C#N)c3)c(CN[C@@H](Cc3cn(C)cn3)C(=O)O)cc2Cl)cccc1-c1ccc2c(c1)OCCO2 [Example 1176, (S)-2-((5-chloro-2-((3-cyanobenzyl)oxy)-4-((3-(2,3-dihydrobenzo[b][1,4]dioxin-6-yl)-2-methylbenzyl)oxy)benzyl)amino)-3-(1-methyl-1H-imidazol-4-yl)propanoic acid]
5 | 0.6 to 10 nM | Cc1c(COc2cc(OCc3cccc(C#N)c3)c(CNC3(C(=O)O)CC3)cc2Cl)cccc1-c1ccc2c(c1)OCCO2 [Example 1177, 1-((5-chloro-2-((3-cyanobenzyl)oxy)-4-((3-(2,3-dihydrobenzo[b][1,4]dioxin-6-yl)-2-methylbenzyl)oxy)benzyl)amino)cyclopropanecarboxylic acid]
6 | 10 to 100 nM | Cc1c(COc2cc(OCc3cccc(C#N)c3)c(CNC(Cc3nccs3)C(=O)O)cc2Cl)cccc1-c1ccc2c(c1)OCCO2 (stereo not shown) [Example 1178, 2-((5-chloro-2-((3-cyanobenzyl)oxy)-4-((3-(2,3-dihydrobenzo[b][1,4]dioxin-6-yl)-2-methylbenzyl)oxy)benzyl)amino)-3-(thiazol-2-yl)propanoic acid]
7 | 10 to 100 nM | COC(C)(C)C(NCc1cc(Cl)c(OCc2cccc(-c3ccc4c(c3)OCCO4)c2C)cc1OCc1cccc(C#N)c1)C(=O)O (stereo not shown) [Example 1179, 2-((5-chloro-2-((3-cyanobenzyl)oxy)-4-((3-(2,3-dihydrobenzo[b][1,4]dioxin-6-yl)-2-methylbenzyl)oxy)benzyl)amino)-3-methoxy-3-methylbutanoic acid]
8 | 10 to 100 nM | Cc1c(COc2cc(OCc3cccc(C#N)c3)c(CN[C@@H](CC#N)C(=O)O)cc2Cl)cccc1-c1ccc2c(c1)OCCO2 [Example 1180, (S)-2-((5-chloro-2-((3-cyanobenzyl)oxy)-4-((3-(2,3-dihydrobenzo[b][1,4]dioxin-6-yl)-2-methylbenzyl)oxy)benzyl)amino)-3-cyanopropanoic acid]
9 | 10 to 100 nM | Cc1c(COc2cc(OCc3cccc(C#N)c3)c(CNC(Cc3ccccc3O)C(=O)O)cc2Cl)cccc1-c1ccc2c(c1)OCCO2 (stereo not shown) [Example 1181, 2-((5-chloro-2-((3-cyanobenzyl)oxy)-4-((3-(2,3-dihydrobenzo[b][1,4]dioxin-6-yl)-2-methylbenzyl)oxy)benzyl)amino)-3-(2-hydroxyphenyl)propanoic acid]
10 | 0.6 to 10 nM | Cc1c(COc2cc(OCc3cccc(C#N)c3)c(CNC(CCS(C)(=O)=O)C(=O)O)cc2Cl)cccc1-c1ccc2c(c1)OCCO2 (stereo not shown) [Example 1182, 2-((5-chloro-2-((3-cyanobenzyl)oxy)-4-((3-(2,3-dihydrobenzo[b][1,4]dioxin-6-yl)-2-methylbenzyl)oxy)benzyl)amino)-4-(methylsulfonyl)butanoic acid]
11 | 0.6 to 10 nM | Cc1c(COc2cc(OCc3cccc(C#N)c3)c(CN(C)[C@@H](CO)C(=O)O)cc2Cl)cccc1-c1ccc2c(c1)OCCO2 [Example 1183, (S)-2-((5-chloro-2-((3-cyanobenzyl)oxy)-4-((3-(2,3-dihydrobenzo[b][1,4]dioxin-6-yl)-2-methylbenzyl)oxy)benzyl)(methyl)amino)-3-hydroxypropanoic acid]
12 | 0.6 to 10 nM | COCC(NCc1cc(Cl)c(OCc2cccc(-c3ccc4c(c3)OCCO4)c2C)cc1OCc1cccc(C#N)c1)C(=O)O (stereo not shown) [Example 1184, 2-((5-chloro-2-((3-cyanobenzyl)oxy)-4-((3-(2,3-dihydrobenzo[b][1,4]dioxin-6-yl)-2-methylbenzyl)oxy)benzyl)amino)-3-methoxypropanoic acid]
13 | 10 to 100 nM | Cc1c(COc2cc(OCc3cccc(C#N)c3)c(CNC(Cc3c[nH]c4ncccc34)C(=O)O)cc2Cl)cccc1-c1ccc2c(c1)OCCO2 (stereo not shown) [Example 1185, 2-((5-chloro-2-((3-cyanobenzyl)oxy)-4-((3-(2,3-dihydrobenzo[b][1,4]dioxin-6-yl)-2-methylbenzyl)oxy)benzyl)amino)-3-(1H-pyrrolo[2,3-b]pyridin-3-yl)propanoic acid]
14 | 0.6 to 10 nM | Cc1c(COc2cc(OCc3cccc(C#N)c3)c(CN[C@@H](Cc3cn(Cc4ccccc4)cn3)C(=O)O)cc2Cl)cccc1-c1ccc2c(c1)OCCO2 [Example 1186, (S)-3-(1-benzyl-1H-imidazol-4-yl)-2-((5-chloro-2-((3-cyanobenzyl)oxy)-4-((3-(2,3-dihydrobenzo[b][1,4]dioxin-6-yl)-2-methylbenzyl)oxy)benzyl)amino)propanoic acid]
15 | 10 to 100 nM | Cc1c(COc2cc(OCc3cccc(C#N)c3)c(CNC(Cc3ccc(O)cc3)C(=O)O)cc2Cl)cccc1-c1ccc2c(c1)OCCO2 (stereo not shown) [Example 1187, 2-((5-chloro-2-((3-cyanobenzyl)oxy)-4-((3-(2,3-dihydrobenzo[b][1,4]dioxin-6-yl)-2-methylbenzyl)oxy)benzyl)amino)-3-(4-hydroxyphenyl)propanoic acid]
16 | 0.6 to 10 nM | Cc1c(COc2cc(OCc3cccc(C#N)c3)c(CN(C)C(C)C(=O)O)cc2Cl)cccc1-c1ccc2c(c1)OCCO2 (stereo not shown) [Example 1188, 2-((5-chloro-2-((3-cyanobenzyl)oxy)-4-((3-(2,3-dihydrobenzo[b][1,4]dioxin-6-yl)-2-methylbenzyl)oxy)benzyl)(methyl)amino)propanoic acid]
17 | 0.6 to 10 nM | Cc1c(COc2cc(OCc3cccc(C#N)c3)c(CN[C@H](C(=O)O)[C@H](C)O)cc2Cl)cccc1-c1ccc2c(c1)OCCO2 [Example 1189, (2S,3S)-2-((5-chloro-2-((3-cyanobenzyl)oxy)-4-((3-(2,3-dihydrobenzo[b][1,4]dioxin-6-yl)-2-methylbenzyl)oxy)benzyl)amino)-3-hydroxybutanoic acid]
18 | 0.6 to 10 nM | Cc1c(COc2cc(OCc3cccc(C#N)c3)c(CN3CCC[C@@H](C(=O)O)[C@H]3C(=O)O)cc2Cl)cccc1-c1ccc2c(c1)OCCO2 [Example 1190, (2S,3R)-1-(5-chloro-2-((3-cyanobenzyl)oxy)-4-((3-(2,3-dihydrobenzo[b][1,4]dioxin-6-yl)-2-methylbenzyl)oxy)benzyl)piperidine-2,3-dicarboxylic acid]
19 | 0.6 to 10 nM | Cc1c(COc2cc(OCc3cccc(C#N)c3)c(CNC(C)(Cc3c[nH]cn3)C(=O)O)cc2Cl)cccc1-c1ccc2c(c1)OCCO2 (stereo not shown) [Example 1191, 2-((5-chloro-2-((3-cyanobenzyl)oxy)-4-((3-(2,3-dihydrobenzo[b][1,4]dioxin-6-yl)-2-methylbenzyl)oxy)benzyl)amino)-3-(1H-imidazol-4-yl)-2-methylpropanoic acid]
20 | 100 to 20000 nM | Cc1c(COc2cc(OCc3cccc(C#N)c3)c(CNC(Cc3c[nH]c4ccccc34)C(=O)O)cc2Cl)cccc1-c1ccc2c(c1)OCCO2 (stereo not shown) [Example 1192, 2-((5-chloro-2-((3-cyanobenzyl)oxy)-4-((3-(2,3-dihydrobenzo[b][1,4]dioxin-6-yl)-2-methylbenzyl)oxy)benzyl)amino)-3-(1H-indol-3-yl)propanoic acid]
21 | 0.6 to 10 nM | CC[C@@H](NCc1cc(Cl)c(OCc2cccc(-c3ccc4c(c3)OCCO4)c2C)cc1OCc1cccc(C#N)c1)C(=O)O [Example 1193, (R)-2-((5-chloro-2-((3-cyanobenzyl)oxy)-4-((3-(2,3-dihydrobenzo[b][1,4]dioxin-6-yl)-2-methylbenzyl)oxy)benzyl)amino)butanoic acid]
22 | 10 to 100 nM | Cc1c(COc2cc(OCc3cccc(C#N)c3)c(CN[C@H](COCc3ccccc3)C(=O)O)cc2Cl)cccc1-c1ccc2c(c1)OCCO2 [Example 1194, (R)-3-(benzyloxy)-2-((5-chloro-2-((3-cyanobenzyl)oxy)-4-((3-(2,3-dihydrobenzo[b][1,4]dioxin-6-yl)-2-methylbenzyl)oxy)benzyl)amino)propanoic acid]
23 | 0.6 to 10 nM | Cc1c(COc2cc(OCc3cccc(C#N)c3)c(CN[C@@H](C(=O)O)[C@H](C)O)cc2Cl)cccc1-c1ccc2c(c1)OCCO2 [Example 1195, (2R,3S)-2-((5-chloro-2-((3-cyanobenzyl)oxy)-4-((3-(2,3-dihydrobenzo[b][1,4]dioxin-6-yl)-2-methylbenzyl)oxy)benzyl)amino)-3-hydroxybutanoic acid]
24 | 0.6 to 10 nM | Cc1c(COc2cc(OCc3cccc(C#N)c3)c(CN3CCCC[C@@H]3C(=O)O)cc2Cl)cccc1-c1ccc2c(c1)OCCO2 [Example 1198, (R)-1-(5-chloro-2-((3-cyanobenzyl)oxy)-4-((3-(2,3-dihydrobenzo[b][1,4]dioxin-6-yl)-2-methylbenzyl)oxy)benzyl)piperidine-2-carboxylic acid]
25 | 10 to 100 nM | Cc1c(COc2cc(OCc3cccc(C#N)c3)c(CN[C@@H](CCS(C)(=O)=O)C(=O)O)cc2Cl)cccc1-c1ccc2c(c1)OCCO2 [Example 1200, (S)-2-((5-chloro-2-((3-cyanobenzyl)oxy)-4-((3-(2,3-dihydrobenzo[b][1,4]dioxin-6-yl)-2-methylbenzyl)oxy)benzyl)amino)-4-(methylsulfonyl)butanoic acid]
